# According to patent US11141413B2, “Method of treating renal cell carcinoma using N-(4-(6,7-dimethoxyquinolin-4-yloxy)phenyl)-N′-(4-fluorophenyl)cyclopropane-1,1-dicarboxamide, (2S)-hydroxybutanedioate” (Exelixis, Inc., priority 2016, dated 2021):
# Test system: patients with advanced renal cell carcinoma
# Details: in vivo
# Procedure: Treatment modifications, including interruptions and dose reductions, were allowed to manage adverse events. […] Patients were allowed to continue study treatment beyond radiographic progression at the discretion of the investigator. On-study crossover between treatment groups was not permitted. Safety evaluations, including physical examination, vital signs, and laboratory assessments, were conducted every 2 weeks for the first 8 weeks and then every 4 weeks thereafter. ECG assessments were performed every 4 weeks for the first 8 weeks and then every 12 weeks. A safety follow-up visit was scheduled 30 days after treatment discontinuation. Adverse events were assessed by investigators and graded according to CTCAE version 4.0.
# Safety analyses were limited to patients who received any amount of study treatment.
smiles,measurement,setting,value
COc1cc2nccc(Oc3ccc(NC(=O)C4(C(=O)Nc5ccc(F)cc5)CC4)cc3)c2cc1OC [cabozantinib],"Abdominal pain, Grade 1-2",human,48 (15) n (%)
same,"Abdominal pain, Grade 3",human,12 (4) n (%)
same,"Abdominal pain, Grade 4",human,0 n (%)
same,"Alanine aminotransferase increased, Grade 1-2",human,47 (14) n (%)
same,"Alanine aminotransferase increased, Grade 3",human,7 (2) n (%)
same,"Alanine aminotransferase increased, Grade 4",human,1 (<1) n (%)
same,"Anemia, Grade 1-2",human,42 (13) n (%)
same,"Anemia, Grade 3",human,19 (6) n (%)
same,"Anemia, Grade 4",human,0 n (%)
same,"Any AE, Grade 1-2",human,70 (21) n (%)
same,"Any AE, Grade 3",human,210 (63) n (%)
same,"Any AE, Grade 4",human,25 (8) n (%)
same,"Arthralgia, Grade 1-2",human,43 (13) n (%)
same,"Arthralgia, Grade 3",human,1 (<1) n (%)
same,"Arthralgia, Grade 4",human,0 n (%)
same,"Aspartate aminotransferase increased, Grade 1-2",human,55 (17) n (%)
same,"Aspartate aminotransferase increased, Grade 3",human,5 (2) n (%)
same,"Aspartate aminotransferase increased, Grade 4",human,0 n (%)
same,"Asthenia, Grade 1-2",human,49 (15) n (%)
same,"Asthenia, Grade 3",human,15 (5) n (%)
same,"Asthenia, Grade 4",human,0 n (%)
same,"Back pain, Grade 1-2",human,54 (16) n (%)
same,"Back pain, Grade 3",human,8 (2) n (%)
same,"Back pain, Grade 4",human,0 n (%)
same,"Blood creatinine increased, Grade 1-2",human,17 (5) n (%)
same,"Blood creatinine increased, Grade 3",human,1 (<1) n (%)
same,"Blood creatinine increased, Grade 4",human,0 n (%)
same,"Constipation, Grade 1-2",human,89 (27) n (%)
same,"Constipation, Grade 3",human,1 (<1) n (%)
same,"Constipation, Grade 4",human,0 n (%)
same,"Cough, Grade 1-2",human,67 (20) n (%)
same,"Cough, Grade 3",human,1 (<1) n (%)
same,"Cough, Grade 4",human,0 n (%)
same,"Decreased appetite, Grade 1-2",human,146 (44) n (%)
same,"Decreased appetite, Grade 3",human,10 (3) n (%)
same,"Decreased appetite, Grade 4",human,0 n (%)
same,"Diarrhea, Grade 1-2",human,206 (62) n (%)
same,"Diarrhea, Grade 3",human,43 (13) n (%)
same,"Diarrhea, Grade 4",human,0 n (%)
same,"Diarrhea, all grades",human,249 (75%) n (%)
same,"Diarrhea, grade 3 or 4",human,43 [13%] n [%]
same,Discontinuation due to a primary reason of AE (excluding disease progression),human,10%
same,"Dizziness, Grade 1-2",human,41 (12) n (%)
same,"Dizziness, Grade 3",human,1 (<1) n (%)
same,"Dizziness, Grade 4",human,0 n (%)
same,"Dry skin, Grade 1-2",human,37 (11) n (%)
same,"Dry skin, Grade 3",human,0 n (%)
same,"Dry skin, Grade 4",human,0 n (%)
same,"Dysgeusia, Grade 1-2",human,80 (24) n (%)
same,"Dysgeusia, Grade 3",human,0 n (%)
same,"Dysgeusia, Grade 4",human,0 n (%)
same,"Dyspepsia, Grade 1-2",human,40 (12) n (%)
same,"Dyspepsia, Grade 3",human,1 (<1) n (%)
same,"Dyspepsia, Grade 4",human,0 n (%)
same,"Dysphonia, Grade 1-2",human,68 (21) n (%)
same,"Dysphonia, Grade 3",human,2 (<1) n (%)
same,"Dysphonia, Grade 4",human,0 n (%)
same,"Dyspnoea, Grade 1-2",human,56 (17) n (%)
same,"Dyspnoea, Grade 3",human,10 (3) n (%)
same,"Dyspnoea, Grade 4",human,0 n (%)
same,"Edema peripheral, Grade 1-2",human,39 (12) n (%)
same,"Edema peripheral, Grade 3",human,0 n (%)
same,"Edema peripheral, Grade 4",human,0 n (%)
same,"Epistaxis, Grade 1-2",human,14 (4) n (%)
same,"Epistaxis, Grade 3",human,0 n (%)
same,"Epistaxis, Grade 4",human,0 n (%)
same,"Fatigue, Grade 1-2",human,159 (48) n (%)
same,"Fatigue, Grade 3",human,36 (11) n (%)
same,"Fatigue, Grade 4",human,0 n (%)
same,"Fatigue, all grades",human,195 (59%) n (%)
same,"Fatigue, grade 3 or 4",human,36 [11%] n [%]
same,"Flatulence, Grade 1-2",human,33 (10) n (%)
same,"Flatulence, Grade 3",human,0 n (%)
same,"Flatulence, Grade 4",human,0 n (%)
same,"Grade 3 and 4 adverse events: Hyperglycemia, %",human,1 (1) %
same,"Grade 3 or 4 Adverse Events: Hypercalcemia (event of interest), %",human,(1) %
same,"Grade 3 or 4 Adverse Events: Hyperglycemia, %",human,(1) %
same,"Grade 3 or 4 Adverse Events: PPES, %",human,(8) %
same,Grade 3 or 4 adverse events,human,235 (71%) n (%)
same,Grade 5 adverse events regardless of causality,human,7.9%
same,"Headache, Grade 1-2",human,43 (13) n (%)
same,"Headache, Grade 3",human,1 (<1) n (%)
same,"Headache, Grade 4",human,0 n (%)
same,"Hyperglycemia, Grade 1-2",human,15 (5) n (%)
same,"Hyperglycemia, Grade 3",human,2 (<1) n (%)
same,"Hyperglycemia, Grade 4",human,1 (<1) n (%)
same,"Hypertension, Grade 1-2",human,73 (22) n (%)
same,"Hypertension, Grade 3",human,49 (15) n (%)
same,"Hypertension, Grade 4",human,0 n (%)
same,"Hypertension, grade 3 or 4",human,49 [15%] n [%]
same,"Hypertriglyceridemia, Grade 1-2",human,17 (5) n (%)
same,"Hypertriglyceridemia, Grade 3",human,4 (1) n (%)
same,"Hypertriglyceridemia, Grade 4",human,0 n (%)
same,"Hypomagnesaemia, Grade 1-2",human,38 (12) n (%)
same,"Hypomagnesaemia, Grade 3",human,6 (2) n (%)
same,"Hypomagnesaemia, Grade 4",human,10 (3) n (%)
same,"Hypothyroidism, Grade 1-2",human,76 (23) n (%)
same,"Hypothyroidism, Grade 3",human,0 n (%)
same,"Hypothyroidism, Grade 4",human,0 n (%)
same,"Insomnia, Grade 1-2",human,32 (10) n (%)
same,"Insomnia, Grade 3",human,0 n (%)
same,"Insomnia, Grade 4",human,0 n (%)
same,"Mucosal inflammation, Grade 1-2",human,60 (18) n (%)
same,"Mucosal inflammation, Grade 3",human,5 (2) n (%)
same,"Mucosal inflammation, Grade 4",human,0 n (%)
same,"Muscle spasms, Grade 1-2",human,45 (14) n (%)
same,"Muscle spasms, Grade 3",human,0 n (%)
same,"Muscle spasms, Grade 4",human,0 n (%)
same,"Nausea, Grade 1-2",human,158 (48) n (%)
same,"Nausea, Grade 3",human,15 (5) n (%)
same,"Nausea, Grade 4",human,0 n (%)
same,"Nausea, all grades",human,173 (52%) n (%)
same,Overall incidence of adverse events regardless of causality,human,100%
same,"Pain in extremity, Grade 1-2",human,46 (14) n (%)
same,"Pain in extremity, Grade 3",human,5 (2) n (%)
same,"Pain in extremity, Grade 4",human,0 n (%)
same,"Palmar-plantar erythrodysaesthesia syndrome, Grade 1-2",human,115 (35) n (%)
same,"Palmar-plantar erythrodysaesthesia syndrome, Grade 3",human,27 (8) n (%)
same,"Palmar-plantar erythrodysaesthesia syndrome, Grade 4",human,0 n (%)
same,Patients with dose reductions,human,62%
same,"Proteinuria, Grade 1-2",human,37 (11) n (%)
same,"Proteinuria, Grade 3",human,8 (2) n (%)
same,"Proteinuria, Grade 4",human,0 n (%)
same,"Pruritus, Grade 1-2",human,27 (8) n (%)
same,"Pruritus, Grade 3",human,0 n (%)
same,"Pruritus, Grade 4",human,0 n (%)
same,"Pyrexia, Grade 1-2",human,31 (9) n (%)
same,"Pyrexia, Grade 3",human,3 (<1) n (%)
same,"Pyrexia, Grade 4",human,0 n (%)
same,"Rash, Grade 1-2",human,52 (16) n (%)
same,"Rash, Grade 3",human,2 (<1) n (%)
same,"Rash, Grade 4",human,0 n (%)
same,Serious adverse events ≥grade 3,human,130 (40%) n (%)
same,"Stomatitis, Grade 1-2",human,65 (20) n (%)
same,"Stomatitis, Grade 3",human,8 (2) n (%)
same,"Stomatitis, Grade 4",human,0 n (%)
same,Study treatment discontinuation due to diarrhea,human,0.9%
same,Treatment discontinuation due to an adverse event not related to disease progression,human,12%
same,"Vomiting, Grade 1-2",human,106 (32) n (%)
same,"Vomiting, Grade 3",human,7 (2) n (%)
same,"Vomiting, Grade 4",human,0 n (%)
same,"Weight decreased, Grade 1-2",human,105 (32) n (%)
same,"Weight decreased, Grade 3",human,9 (3) n (%)
same,"Weight decreased, Grade 4",human,0 n (%)
same,Grade 5 adverse events assessed as treatment-related,,One
